Reference: patent US7615380B2, “Methods for modulating an immune response by modulating KRC activity” (President and Fellows of Harvard College, priority 2001, dated 2009)

Tests used:
NFκB = NFκB luciferase reporter transfection assay in 293T cells; assay type: cell-based, human
Experimental: FIGS. 2(A)-2(C) depicts KRC preventing TRAF-dependent NFkB activation. Inhibition of TRAF2 (FIG. 2(A)), TRAF5 (FIG. 2(B)) and TRAF6 (FIG. 2(C)) mediated activation of NFkB by ectopically expressed KRC. 293 T cells (3×10^5 ) were transfected with 25 ng of NFkB luciferase reporter plasmid, 50 ng of CMVβGal and 1 μg of each indicated plasmid and 24 hours post transfection cells were harvested. Data from at least five experiments normalized for β galactosidase activity are shown. Vec refers to the empty MYC vector without the addition of TRAFs.
293 T cells (3×10^5 ) were transfected with 25 ng of NFκB luciferase reporter plasmid, 50 ng of CMVβGal and 1 μg of each indicated plasmid and 24 hours post transfection cells were stimulated for 4 hours with 10 ng/ml of TNFα. (A) KRC and KRC tr (B) dominant negative and antisense KRC (C) antisense KRC in the presence of exogenous TRAF2. Data from at least five experiments normalized for β galactosidase activity are shown.
(§1) HEK293 cells ([…] per well) were seeded in 6 well plates, and 12 h later cells were transfected with EFECTENE™ (Qiagen) with 25 ng of a 2XNFκB-luciferase (Luc) reporter gene plasmid and 0.5 μg of the indicated TRAF and KRC expression vectors. Total amounts of transfected DNA were kept constant by supplementing with control empty expression vector plasmids as needed. Cell extracts were prepared 24 h after transfection, and reporter gene activity was determined via the luciferase assay system (PROMEGA). PRSV-βGal vector (50 ng) was used to normalize for transfection efficiency by measuring β galactosidase activity using the Galacton-PLUS substrate system (TROPIX, Inc.). Whenever indicated, the cells were treated for 4 hours with TNFα or IL-1 (10 ng/ml). To generate stable transfectants, EFECTENE™ mediated transfection of the RAW cell line was performed and clones were selected and maintained in complete medium supplemented with G418 (2 mg/ml).

JNK = JNK in vitro kinase assay after transfection of 293 cells; assay type: cell-based, human; conditions: 293 cells cotransfected with TRAF2, 24 hours
Experimental: Inhibition of TRAF2 (A) and TNFα (B, C) mediated JNK/SAPK activation by ectopic expression of KRC. (A) 293 T cells were transfected with 400 ng of TRAF2 and 2 μg of the indicated expression vector. Twenty-four hours after the transfection, the cells were harvested and lysed, and the endogenous JNK was precipitated with 5 μg of GST-cJUN (1-79) for 4 hours. JNK activity was determined by using GST-cJUN (1-79) as a substrate. (B,C) 293 T cells were cotransfected with vectors encoding HA-tagged JNK2 (500ng) and the indicated expression vector (2 μg). Twenty-four hours after the transfection cells were stimulated for 10 min with 10 ng/ml of TNFα and cells harvested at varying time points. JNK activity was assayed with GST-cJUN (1-79) as substrate.
Anti-HA or anti-FLAG immunoprecipitates were used for immune complex kinase assays that were performed at 30° C. for 30 min with 1 μg of substrate, 10 μCi of γ^32 P ATP, and 10 μM ATP in 30 μl of kinase buffer (20 mM HEPES, pH 7.4, 10 mM MgCl2, 25 mM β-glycerophosphate, 50 μm NA3VO4, and 50 μm DTT). The substrate was GST-c-JUN.

TNFα = assay: Northern blot of endogenous TNFα in stably transfected RAW macrophage clones; assay type: cell-based; conditions: stable RAW transfectants, baseline
Experimental: Northern blotting analysis was performed using total RNA made from RAW cell lines transfected with an empty vector as a control and from a panel of 9 independent RAW clones stably transfected with full-length KRC (upper) and 3 RAW clones stably transfected with dominant negative KRC (lower). The blot was probed with a TNFα cDNA and with HPRT as loading control.
as §1, with “mg/ml). […]” for “mg/ml).”

CD69 = CD69 expression by FACS in transfected Jurkat T cells; assay type: cell-based, human
Experimental: KRC was transfected into Jurkat T cells and CD69 expression was measured by FACS analysis.

IL-2 promoter = assay: IL-2 promoter, NFAT/AP-1 and NFAT luciferase reporters and IL-2 RT-PCR in Jurkat cells; assay type: cell-based, human
Experimental: FIG. 19(A) Stably transfected Jurkat T cell clones with vector (vec) or KRC (Jurkat-KRC) were stimulated with PMA (50 ng/mL) plus ionomycin (2 μM) for 6 hours. IL-2 mRNA abundance was determined by RT-PCR with tubulin as an internal control. FIG. 19(B) Jurkat cells were transiently transfected with an IL-2-Luciferase reporter along with Vector, KRC, or KRCtr (amino acids 204-1055) and, in all cases, a CMV-β-Gal reporter as an internal control (see text for details). 24 hours later, cells were stimulated with PMA plus ionomycin for 6 hours (upper panel) or Raji cells loaded with SEE for 8 hours (lower panel). Luciferase activity was determined and normalized for β-Galactosidase activity. FIG. 19(C) Jurkat cells were transiently transfected with NFAT/AP-1-, NFAT-, or AP-1-Luciferase reporters and treated as above.
For each transfection, 5×10^6 Jurkat cells were incubated with either IL2-Luc, NFAT/AP1-Luc or AP1-Luc reporter DNA together with pEF vector or pEF-KRC and CMV-βGAL as normalization control in 0.4 ml of RPMI and transfected by electroporation (260 v, 975 uF). Transfected cells were cultured at 37° C. for 20 h in RPMI 1640 medium (Gibco BRL) supplemented with 10% fetal bovine serum. Transfected cells were stimulated with PMA (50 ng/ml) and ionomycin (2 uM) for 6 hours prior to luciferase (Promega) and β-galactosidase assays (Galacton-PLUS substrate system, TROPIX, Inc).
Total RNA was isolated from T cells using TRIZOL™ reagent (Gibco/BRL). One (1) μg of total RNA was reverse transcribed using iScript cDNA Synthesis Kit (BioRad). PCR was performed with 2 uM of each primer (listed below) and 2.5 units of Platinum High fidelity enzyme (Invitrogen) according to the manufacturer.
Jurkat cells were transfected by electroporation and incubated for 20 h at 37° C. before stimulation for 8 h with the Raj i B cell line and Staphylococcal Enteroxin E (SEE) using Raji cells (1:1 with Jurkat cells) and SEE (200 ng/ml).

What does the source list for “KRC: full-length KRC zinc finger protein (SEQ ID NO:2) overexpressed from an expression vector”?
NFκB activation induced by TRAF5 and TRAF6 (NFκB; 293T cells): substantially but not completely affected; NFkB-dependent transactivation (NFκB; 293T cells, absence of exogenous TRAFs): blocked NFkB-dependent transactivation; TRAF2-induced NFκB activation (NFκB; 293T cells, exogenous TRAF2): blocked TRAF2-induced NFκB activation; TNFα-induced NFκB activation (NFκB; 293 cells, 10 ng/ml TNFα 4 hours): strongly inhibited TNFα-induced NFκB activation; TRAF2-dependent JNK activation (JNK): blocked JNK activation only partially; endogenous TNFα mRNA expression (TNFα): substantial decrease of baseline TNFα mRNA transcripts; CD69 expression (CD69): increases expression of CD69; PMA/ionomycin induced activity of NFAT reporter (IL-2 promoter; Jurkat cells): not further increased; IL-2 promoter-luciferase induction (IL-2 promoter; Jurkat cells, PMA plus ionomycin): approximately 10 fold; transactivation of multimerized NFAT/AP-1 and AP-1 elements (IL-2 promoter; Jurkat cells, PMA/ionomycin): enhanced PMA/ionomycin-induced transactivation; IL-2 promoter activity increase (IL-2 promoter; Jurkat cells, Raji cells plus SEE): approximately 10 fold; IL-2 mRNA transcripts (RT PCR) (IL-2 promoter; stable Jurkat clones, activated): higher levels of IL-2 transcripts
